Source: the NIST ThermoML archive (doi:10.1021/je400803f)

Assay: xn = mol fraction of the nth substance listed
Conditions: 101 kPa, Liquid, Vibrating tube method

CCCC[N+]1(C)CCCC1.FC(F)(F)C(F)(F)[P-](F)(F)(F)(C(F)(F)C(F)(F)F)C(F)(F)C(F)(F)F + CN(C)C=O
mass density [kg/m3]
Conditions | 293.15 K | 298.15 K | 303.15 K | 308.15 K
x1 = 0.0165 | 993.84 | 988.9 | 983.96 | 978.95
x1 = 0.0379 | 1045.32 | 1040.31 | 1035.26 | 1030.17
x1 = 0.0636 | 1098.24 | 1093.11 | 1087.96 | 1082.78
x1 = 0.0999 | 1160.65 | 1155.44 | 1150.21 | 1144.9
x1 = 0.1381 | 1214.48 | 1209.17 | 1203.86 | 1198.5
x1 = 0.2002 | 1284.15 | 1278.78 | 1273.37 | 1267.93
x1 = 0.3038 | 1367.83 | 1362.38 | 1356.95 | –
x1 = 0.3944 | 1420.86 | 1415.36 | 1409.86 | –
x1 = 0.4946 | 1465.66 | 1460.2 | 1454.71 | –
x1 = 0.5997 | 1502.25 | 1496.77 | 1491.29 | –
x1 = 0.6972 | 1529.32 | 1523.85 | 1518.39 | –
x1 = 0.7887 | 1550.58 | 1545.07 | 1539.56 | –
x1 = 0.8853 | 1569.6 | 1564.14 | 1558.67 | –
